Like-named read-outs stand apart in the source and are kept apart here.
Experiments:
Adenosine A2a receptor = target: T1, Adenosine A2a receptor (Homo sapiens, UniProt P29274); experiment: Adenosine receptor TR-FRET binding assay, A2a; settings: displacement of 100 nM CA200645, CHO cell membranes
T1 construct: expressed in transfected cells; host or cells: CHO cell membranes
Method in brief: (§1)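 Competition TR-FRET binding in CHO cell membranes expressing terbium-labelled human receptors, displacing fluorescent XAC (CA200645; 30 nM for A2b, 100 nM for A1, A2a, A3); 2 h at room temperature with saponin buffer, 1% DMSO. 665/620 nm ratio; non-specific with 10 μM XAC; Ki by Cheng–Prusoff from IC50.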

Human Whole Blood = experiment: LPS stimulated TNF-alpha release NECA reversal assay; format: cell-based; settings: 5 hours
Experimental: Blood is drawn from healthy volunteers using sodium citrate (0.3% final concentration) or heparin (19.5 U/ml) as the anticoagulant. A 15 minute incubation may be given with adenosine deaminase (2 u/ml) prior to plating the blood into assay plates, as indicated. 20 μl diluted compound mix containing LPS, NECA and adenosine receptor antagonist diluted in RPMI medium is added to U-bottom cell culture plates. 180 μl anticoagulated blood is added. Assay plates are incubated for 5 hours at 37° C. in a humidified incubator. Plasma obtained by centrifugation at 2000 rpm/10 mins is tested for TNF alpha levels using the human TNF alpha Tissue Culture Kit (Meso Scale Discovery). For bar charts, data is expressed as raw counts from a Mesoscale Sector Imager 6000.

Adenosine A1 receptor = target: T2, Adenosine A1 receptor (Homo sapiens, UniProt P30542); experiment: Adenosine receptor TR-FRET binding assay, A1; settings: Table 9, further testing; displacement of 100 nM CA200645, CHO cell membranes
T2 construct: expressed in transfected cells; host or cells: CHO cell membranes
T2 sequence (P30542 1-326): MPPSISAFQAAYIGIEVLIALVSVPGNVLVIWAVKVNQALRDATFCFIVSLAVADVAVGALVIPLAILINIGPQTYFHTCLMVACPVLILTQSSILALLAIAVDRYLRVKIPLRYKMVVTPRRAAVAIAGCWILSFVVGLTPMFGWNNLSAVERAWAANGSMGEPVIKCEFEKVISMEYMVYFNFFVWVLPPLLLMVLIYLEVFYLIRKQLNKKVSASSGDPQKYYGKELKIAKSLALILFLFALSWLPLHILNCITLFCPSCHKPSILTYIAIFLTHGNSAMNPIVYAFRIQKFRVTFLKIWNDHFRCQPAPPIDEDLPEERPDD
Method in brief: as §1

Adenosine A3 receptor = target: T3, Adenosine A3 receptor (Homo sapiens, UniProt P0DMS8); experiment: Adenosine receptor TR-FRET binding assay, A3; settings: Table 9, further testing; displacement of 100 nM CA200645, CHO cell membranes; read-out: A3 Ki
T3 construct: expressed in transfected cells; host or cells: CHO cell membranes
T3 sequence (P0DMS8 1-318): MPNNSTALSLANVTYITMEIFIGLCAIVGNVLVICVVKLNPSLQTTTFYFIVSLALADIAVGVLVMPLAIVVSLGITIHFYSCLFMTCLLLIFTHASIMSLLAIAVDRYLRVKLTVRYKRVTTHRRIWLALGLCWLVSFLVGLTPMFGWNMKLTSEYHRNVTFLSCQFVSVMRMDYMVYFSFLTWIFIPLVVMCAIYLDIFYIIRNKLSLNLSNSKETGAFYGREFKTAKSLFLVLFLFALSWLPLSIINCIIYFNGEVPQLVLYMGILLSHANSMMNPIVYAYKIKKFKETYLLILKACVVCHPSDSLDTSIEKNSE
Method in brief: as §1

[1] = system: CD8+T Cells in Human Whole Blood; experiment: Measurement of pCREB in CD8+ T cells; format: cell-based; settings: T-cell, 1 h; heparinised human whole blood, rolipram, 3 μM NECA, 60 min, FACS
Experimental: Heparinised human whole blood was pre-incubated at 37° C. with serial dilutions of A2a antagonists for 20 min. and the phosphodiesterase inhibitor rolipram to amplify the pCREB response. The adenosine receptor agonist NECA is then added at a final concentration of 3 μM and following a 60 min incubation the blood is fixed and red blood cells lysed. White blood cells are isolated, permeabilized and stained with directly conjugated fluorescent antibodies to phospho-CREB (Alexa Fluor 488) and CD8 (Alexa Fluor 647) and the level of phospho-CREB in CD8+ T cells is measured by FACS using a BD Accuri C6 Flow Cytometer.

Adenosine A2b receptor = target: T4, Adenosine A2b receptor (Homo sapiens, UniProt P29275); experiment: Adenosine receptor TR-FRET binding assay, A2b; settings: Table 9, further testing; displacement of 30 nM CA200645, CHO cell membranes
T4 construct: expressed in transfected cells; host or cells: CHO cell membranes
T4 sequence (P29275 1-332): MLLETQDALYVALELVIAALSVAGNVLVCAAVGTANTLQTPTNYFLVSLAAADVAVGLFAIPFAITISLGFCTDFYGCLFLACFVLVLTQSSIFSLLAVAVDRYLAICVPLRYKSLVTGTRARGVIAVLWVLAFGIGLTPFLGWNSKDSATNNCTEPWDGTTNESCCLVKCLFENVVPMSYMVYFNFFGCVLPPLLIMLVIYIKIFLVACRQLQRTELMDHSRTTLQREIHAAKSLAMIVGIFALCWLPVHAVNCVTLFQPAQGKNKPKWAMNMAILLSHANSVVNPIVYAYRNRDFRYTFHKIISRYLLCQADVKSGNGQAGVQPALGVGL
Method in brief: as §1

Human PBMCs = experiment: CD3/CD28 stimulated IL-2 release NECA reversal assay; format: cell-based
Experimental: Blood is drawn from healthy volunteers using sodium citrate as the anticoagulant (0.3% final concentration). […] 50 μl diluted compound mix is added to the cells, to obtain final concentrations of 1 ug/ml CD28 antibody, 1 uM NECA and 0.003-10 μM adenosine receptor antagonist. Assay plates are incubated for 24 hours at 37° C. in a humidified incubator.

cancer = settings: monotherapy and in combination with atezolizumab, preliminary data, cited from earlier work
[2] = Homo sapiens, PBMC, read-out: IL-2 release NECA reversal IC50 (nM), 1 uM NECA, 24 hours

T1 sequence (P29274 whole entry): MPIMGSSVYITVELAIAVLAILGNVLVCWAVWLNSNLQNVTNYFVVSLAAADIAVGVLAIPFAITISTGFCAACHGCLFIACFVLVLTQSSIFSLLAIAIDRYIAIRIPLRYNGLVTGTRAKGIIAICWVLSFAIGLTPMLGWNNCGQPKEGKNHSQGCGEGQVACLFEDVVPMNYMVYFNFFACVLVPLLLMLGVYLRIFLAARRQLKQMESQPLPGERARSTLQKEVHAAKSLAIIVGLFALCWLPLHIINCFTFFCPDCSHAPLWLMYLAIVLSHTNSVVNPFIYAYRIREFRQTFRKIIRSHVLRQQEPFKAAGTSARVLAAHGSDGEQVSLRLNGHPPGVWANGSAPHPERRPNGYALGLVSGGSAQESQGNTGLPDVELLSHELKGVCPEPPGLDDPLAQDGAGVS

Row | SMILES | Ki (Adenosine A2a receptor; Table 8, Cheng and Prusoff) [nM] | Ki (Adenosine A2a receptor; Table 9, further testing) [nM] | IC50 (Human Whole Blood) [nM] | Ki (Adenosine A1 receptor) [nM] | Ki (Adenosine A3 receptor) [nM] | IC50 [1] [nM] | Ki (Adenosine A2b receptor) [nM] | IC50 (Human PBMCs; read-out: IL-2 release NECA reversal IC50, 1 uM NECA, 24 hours) [nM] | IC50 (Human PBMCs; [2]) [nM] | CD8+T infiltration into tumour tissue (cancer; early indications) | tumour size (cancer; early indications) | tolerability (cancer)
1 | Cc1cccnc1CNC(=O)c1cnc(-c2ccco2)nc1N [Example 3, 4-Amino-2-(2-furyl)-N-[(3-methyl-2-pyridyl)methyl]pyrimidine-5-carboxamide] | 1.7 | 3.3 | 2290 | 1720 | 908 | 1210 | 440 | 77 | – | – | – | –
2 | Cc1cccnc1CNC(=O)c1c(N)nc(-c2ncco2)nc1OCCF [Example 25, 4-Amino-6-(2-fluoroethoxy)-N-[(3-methyl-2-pyridyl)methyl]-2-oxazol-2-yl-pyrimidine-5-carboxamide] | – | 1.3 | – | 260 | 62 | 106 | 77 | – | 11 | – | – | –
3 | Cc1ccc(-c2nc(N)nc3c2nnn3Cc2cccc(CO[C@H]3CCOC3)n2)o1 [CPI-444] | – | – | – | – | – | – | – | – | – | enhancing CD8^+T infiltration into tumour tissue | reducing tumour size | well tolerated
4 | Cc1cccnc1CNC(=O)c1c(N)nc(-c2ccco2)nc1OC[C@H](C)O [Example 20.11, 4-Amino-2-(2-furyl)-6-[(2S)-2-hydroxypropoxy]-N-[(3-methyl-2-pyridyl)methyl]pyrimidine-5-carboxamide] | – | 0.11 | 221 | 1.7 | 11 | 42 | 80 | – | 9 | – | – | –
5 | COc1nc(-c2ccco2)nc(N)c1C(=O)NCc1c(Cl)cccc1Cl [Example 18.3, 4-Amino-N-[(2,6-dichlorophenyl)methyl]-2-(2-furyl)-6-methoxy-pyrimidine-5-carboxamide] | – | 0.078 | 476 | 18 | 194 | 17 | 5.4 | – | 5 | – | – | –
6 | Cc1cccnc1CNC(=O)c1c(N)nc(-c2ccco2)nc1OC[C@@H](C)O [Example 20.13, 4-Amino-2-(2-furyl)-6-[(2R)-2-hydroxypropoxy]-N-[(3-methyl-2-pyridyl)methyl]pyrimidine-5-carboxamide] | – | 0.099 | – | 9 | 14 | – | 611 | – | 19 | – | – | –
7 | Nc1nc(-c2cccc(F)c2)ncc1C(=O)NCc1ccccc1O [Example 10.1, 4-Amino-2-(3-fluorophenyl)-N-[(2-hydroxyphenyl)methyl]pyrimidine-5-carboxamide] | 13 | 13 | – | 93 | 421 | – | 54 | – | 216 | – | – | –
8 | Cc1cccnc1CNC(=O)c1cnc(-c2cccc(F)c2)nc1N [Example 4.3, 4-Amino-2-(3-fluorophenyl)-N-[(3-methyl-2-pyridyl)methyl]pyrimidine-5-carboxamide] | 12 | 12 | – | 49 | 54 | – | 689 | – | 705 | – | – | –

From US20200339548A1, “PYRIMIDINE DERIVATIVES AND THEIR USE FOR THE TREATMENT OF CANCER” (Adorx Therapeutics Limited, priority 2017, published 2020)
